Measured values as given in US20210077585A1, “METHOD OF TREATMENT OF IMMUNE CHECKPOINT INHIBITOR-RELATED IMMUNE ADVERSE EFFECTS” (priority 2019, published 2021).
Entries after “also recorded” stand apart in the source; their conditions may differ. No end group written: not given here.

What was measured:
B16 melanoma = test: Tumor challenge with B16 melanoma under anti-CTLA-4 mAb; format: in vivo, mice; conditions: 100 μg anti-CTLA-4 mAb days 0, 6, 10 with Tα1 200 μg/kg i.p.; FIG. 2E
Description: B16-F0 (ATCC® CRL-6322™ were cultured in RPMI Medium1640 (Gibco, Life Technologies, USA) containing 10% FBS (Gibco, USA), 100 U/mL penicillin, and 100 μg/mL streptomycin, at 37° C. in a humidified atmosphere of 5% CO2. 2×10^5 B16 tumor cells were subcutaneously injected into the right flanks of the mice. The mice were injected intraperitoneally with 100 μg of anti-CTLA-4 mAb, at 0, 6, and 10 days post-tumor implantation and concomitantly with Tα1 at 200 μg/kg intraperitoneally. Tumor size was measured with a caliper and calculated as described (Wang et al., 2019).

[1] = system: murine dextran sodium sulfate (DSS)-induced colitis; test: Dextran sodium sulfate (DSS)-induced colitis in mice; format: in vivo, C57BL6 mice
Description: (§1) Inbred C57BL6 mice, 8 to 12 weeks old, were purchased from Charles River Breeding Laboratories (Calco, Italy). Experiments were performed following protocols approved by the institutional animal committee and in accordance with European Economic Community Council Directive as well as institutional animal care and use guidelines.
DSS is a water soluble, negatively charged sulfated polysaccharide with a highly variable molecular weight ranging from 5 to 1400 kDa. Murine colitis results from administration of 40-50 kDa DSS added to drinking water. […] We have added 40-50 kDa DSS to sterilized drinking water at 3% for a period of 6 days to induce acute colitis. Concomitantly, Tα1 at 200 μg/kg was intraperitoneally injected daily, as illustrated in FIG. 1A. Control mice receive vehicle alone. Surviving mice were sacrificed at 10 days after the initiation of colitis.
(§2) In both models, animals were monitored daily for appearance of diarrhea, fecal blood, loss of body weight and survival. At the end of the experiment, surviving mice were sacrificed, the colon was excised, and evaluated for macroscopic damage and local immune parameters
(§3) Freshly isolated colons were fixed in formalin and embedded in paraffin. H&E staining was performed using a standard protocol. For the quantitative histological analysis, five criteria were used to grade each section of the intestine: (i) severity of inflammation, (ii) percent of area affected by inflammation, (iii) degree of hyperplasia, (iv) depth of the lesion, and (v) ulceration.
The levels of cytokines in the colon homogenates were determined by specific ELISA (R&D Systems).
(§4) Student's t-test, one- or two-way ANOVA with Bonferroni post-hoc test were used to determine the statistical significance. Significance was defined as p<0.05. Data are pooled results (mean±SEM) or representative images from three experiments.

[2] = system: murine model of checkpoint inhibitor-mediated colitis (CIC); test: Checkpoint inhibitor-mediated colitis (CIC) model (DSS + anti-CTLA-4 mAb) in mice; format: in vivo, C57BL6 mice
Description: as §1
The mice received 3% DSS in their drinking water for 8 days and 100 μg of anti-CTLA-4 mAb (BioXcell, USA) or isotype control antibody intraperitoneally at the beginning of the experiment (day 0) and 4 days after (day +4). Surviving mice were sacrificed at 16 days. Tα1 at 200 μg/kg was intraperitoneally injected every other day, as illustrated in FIG. 2A.
as §2, §3, §4

[3] = steroid and infliximab refractory cases; recent reports; cited from earlier work
[4] = ELISA of colon homogenates, FIG. 1F

Substance | growth kinetics of B16 melanoma tumors / antitumoral efficacy afforded by anti-CTLA-4 mAb (B16 melanoma) | loss of body weight ([1]; 3% DSS 6 days, Tα1 200 μg/kg intraperitoneally daily, FIG. 1B) | production of IL-10 in the colon ([1]; ELISA of colon homogenates, FIG. 1E) | production of pro-inflammatory cytokine IL-1S [1, 4] | production of pro-inflammatory cytokine IL-17A [1, 4] | expression of IDO1 in the colon ([1]; RT-PCR, at sacrifice, FIG. 1E) | survival of mice ([1]; Tα1 200 μg/kg i.p. daily, FIG. 1C) | colon histopathology ([1]; Tα1 200 μg/kg i.p. daily, at sacrifice, FIG. 1D) | loss of body weight ([2]; CIC model (3% DSS 8 days + anti-CTLA-4 mAb), Tα1 200 μg/kg i.p. every other day, FIG. 2B) | survival of mice ([2]; CIC model, Tα1 200 μg/kg i.p. every other day, FIG. 2C) | architecture structure of the colon in surviving mice ([2]; CIC model, compared to untreated animals, FIG. 2D) | mice surviving at 16 days post initiation of colitis ([2]; CIC model, time at which untreated mice have all died, FIG. 2C) | efficacy in refractory CIC [3]
Thymosin alpha 1 (Ac-SDAAVDTSSEITTKDLKEKKEVVEEAEN; UniProt P06454 2-29, looked up) [Tα1, naturally-occurring polypeptide of 28 amino acid; from CRIBI Biotechnology, supplied as purified sterile, lyophilized, acetylated polypeptide] | does not affect the antitumoral efficacy; also recorded: did not affect the growth kinetics of the tumors | prevented the loss of body weight | induced | decreased the production | decreased the production | induced the expression of IDO1 | increased survival of mice | ameliorated colon histopathology | not significantly prevented | significantly increased the survival of mice | recovery of the normal architecture structure of the colon | majority of mice surviving | 
Vedolizumab: therapy reported as more gut specific and efficacious in steroid and infliximab refractory checkpoint inhibitor colitis |  |  |  |  |  |  |  |  |  |  |  |  | efficacious in steroid and infliximab refractory cases
